From the SangsterLogP compilation

How the values were obtained:
[1] = method code SF-HPLC, from DOI: 10.1016/0006-2952(94)90540-1, PMID: 8185676
[2] = method code SF-RC, from DOI: 10.1002/syn.20147; conditions: pH 7.4
[3] = method code SF-AS, from DOI: 10.1016/0378-5173(86)90115-8
[4] = method code SF-AS, from DOI: 10.1211/0022357011776199, PMID: 11428660; conditions: pH 7.4
[5] = method code SF-AS, from DOI: 10.1002/jps.2600611027, PMID: 5072421
[6] = method code SF-HPLC, from DOI: 10.1002/ps.2780280108
[7] = method code SF, from DOI: 10.1016/j.bcp.2004.09.021, PMID: 15627482; conditions: pH 7.0
[8] = method code SF-AS, from DOI: 10.1016/0223-5234(96)88239-0; conditions: pH 2.0
[9] = method code SF-AS, from DOI: 10.1248/cpb.32.4084, PMID: 6099228; conditions: pH 7.4
[10] = not given; remark: listed apart in the source
[11] = not given; remark: listed apart in the source
[12] = method code SF-AS, from DOI: 10.1213/00000539-199008000-00008, PMID: 2375517
[13] = method code SF-AS, from DOI: 10.1016/s0969-8051(99)00063-3, PMID: 10628565; conditions: pH 7.0
[14] = method code SF, from DOI: 10.1584/jpestics.12.445
[15] = method code SF-HPLC, from DOI: 10.1006/pest.1998.2384
[16] = method code SF, from DOI: 10.1023/a:1012119527214, PMID: 9453056; conditions: pH 12.5
[17] = not given; remark: listed apart in the source
[18] = method code SF-ILT, from DOI: 10.1002/ardp.19763091008, PMID: 1008678
[19] = not given; remark: listed apart in the source
[20] = method code SF-RC, from DOI: 10.1016/s0969-8051(00)00080-9, PMID: 10832080; conditions: pH 13.0
[21] = method code SF-AS, from DOI: 10.1002/pauz.19770060602
[22] = not given; remark: listed apart in the source
[23] = method code SF-AS, from DOI: 10.1016/0300-483x(85)90004-6, PMID: 4024126
[24] = method code SF-HPLC, from DOI: 10.1023/a:1013643013244, PMID: 11837695; conditions: pH 6.4
[25] = method code SF-GLC, from DOI: 10.1016/s0021-9673(00)91779-5; conditions: pH 7.0

SMILES: CC[C@]1(Cl)C(=O)NC(=O)N([C@H]2C[C@H](O)[C@@H](CO)O2)[C@@H]1OC
- logP [1]: 0.4

SMILES: N#Cc1cc(F)cc(C#Cc2ccccn2)c1
- logD [2]: 2.8

SMILES: CCCCCC(=O)N(C)c1ccc(S(=O)(=O)N(C)C)cc1
- logP [3]: 2.16

SMILES: CCN(CC)CC(=O)OCCn1c([N+](=O)[O-])cnc1C
- logD [4]: 0.03

SMILES: Cc1ncc([N+](=O)[O-])n1CCOC(=O)CN1CCOCC1
- logD [4]: 0.27

SMILES: O=C1c2ccccc2C(=O)c2c(O)cccc21
- logP: 3.52

SMILES: CCCCCCCCc1ccncc1
- logP [5]: 5.42

SMILES: COC(=O)c1c(C)[nH]c(-c2cc(Cl)ccn2)c1C(=O)OC
- logP [6]: 2.63

SMILES: CCCCC1(C(=O)OCCC)CCC=[N+]1[O-] (configuration not stated)
- logD [7]: 1.16

SMILES: Cc1ccc(C(=O)c2ncc(C(=O)O)n2C)cc1
- logD [8]: 2.25

SMILES: CCc1ccc(NC(=O)CN2CCCCC2)cc1
- logD [9]: 3.52

SMILES: COC(=O)c1c(C)[nH]c(-c2ncccc2Cl)c1C(=O)OC
- logP [6]: 1.51

SMILES: CC(C)(C)C(O)C(Oc1ccc(Cl)cc1)n1cncn1 (configuration not stated)
- logP [10]: 3.05

SMILES: NS(=O)(=O)c1ccc(-n2cc(-c3ccccc3)nn2)cc1
- logP [11]: 2.3

SMILES: CCN(CC)CCOC(=O)c1ccc(N)cc1Cl
- logP [12]: 2.86

SMILES: O=c1[nH]c(Nc2ccccc2)nc2c1ncn2CC(O)CSCCO (configuration not stated)
- logD [13]: 0.83

SMILES: CN(C(=O)CCC(N)=O)c1ccc(S(=O)(=O)N(C)C)cc1
- logP [3]: -0.56

SMILES: C=C(c1ccccc1OCCCCCO)n1ccnc1
- logP [14]: 2.89

SMILES: C=CCOc1ccccc1C(=C)n1ccnc1
- logP [14]: 2.74

SMILES: C=CCN1CCN(Cc2ccc(Cl)nc2)C1=N[N+](=O)[O-]
- logP [15]: 0.51

SMILES: Cc1nc(C#Cc2cc(F)cc(C#N)c2)cs1
- logD [2]: 3.2

SMILES: Cc1cccc(C)c1NC(=O)CN(C)C
- logD [16]: 1.23

SMILES: CCN/C(=N/C#N)NCCSCc1ncccc1Br
- logP [17]: 1.98

SMILES: CCN(CC)C(=O)C1C2CC3C(OC(=O)C31)C2O (configuration not stated)
- logP [18]: 0.15

SMILES: Cc1nc(NCCN)c(C#N)cc1-c1ccncc1
- logP [19]: 1.91

SMILES: CN1CCN(c2ncc(-c3ccncc3)cc2C#N)CC1
- logP [19]: 2.96

SMILES: CN1C2CCC1C(c1cccnc1)C2 (configuration not stated)
- logD [20]: 1.65

SMILES: C#CCN1CCN(Cc2ccc(Cl)nc2)C1=N[N+](=O)[O-]
- logP [15]: 0.29

SMILES: CCN(CC)C(=O)[C@@H]1[C@@H](C(=O)N(CC)CC)[C@H]2C=C[C@@H]1C2
- logP [18]: 1.16

SMILES: CCN(CC)CC(=O)NCC(=O)Nc1c(C)cccc1C
- logD [16]: 2.2

SMILES: O=C(CN1CCCCC1)Nc1ccc(Cl)cc1
- logD [9]: 3.26

SMILES: O=C1CN(O)C(c2ccccc2)=c2cc(Cl)ccc2=N1
- logD ([21]; pH 4.0): 1.49

SMILES: COc1ccc(C(=O)c2ncc(C(=O)O)n2C)cc1
- logD [8]: 2.01

SMILES: O=C(NC1CCN(CCO)CC1)c1ccc(I)cc1
- logP [22]: 1.93

SMILES: CC(=O)c1ccc(N2C(=O)CCC2=O)cc1
- logP [23]: 1.37

SMILES: CN(C)Cc1ccc(CSCCNc2[nH]ccc2[N+](=O)[O-])o1
- logP [17]: 1.64

SMILES: O=c1[nH]c(Nc2ccccc2)nc2c1ncn2CC(O)CO (configuration not stated)
- logD [13]: 0.4

SMILES: O=C(NC1CCN(CCF)CC1)c1ccc(I)cc1
- logP [22]: 2.57

SMILES: CN1C2CCC1C(c1ccccn1)C2 (configuration not stated)
- logD [20]: 1.34

SMILES: CCCCC1(C(=O)OC(C)CC)CCC=[N+]1[O-] (configuration not stated)
- logD [7]: 1.59

SMILES: CN1C(=O)CCC(N2C(=O)c3ccccc3C2=O)C1=O (configuration not stated)
- logD [24]: 1.15

SMILES: CC(C)(C)c1ccc(N2C(=O)CCC2=O)cc1
- logP [23]: 0.67

SMILES: c1ccc2c(c1)-c1cccc3cccc-2c13
- logP: 5.15

SMILES: CCCCCN1C(=O)CCC(N2C(=O)c3ccccc3C2=O)C1=O (configuration not stated)
- logD [24]: 3.01

SMILES: CCCCCCCCCc1ccncc1
- logP [5]: 6.11

SMILES: CCOP(=S)(Oc1ccc(C)cc1)c1ccccc1 (configuration not stated)
- logD [25]: 2.22

SMILES: CCCNC(C)C(=O)Nc1ccccc1C (configuration not stated)
- logP [12]: 2.11

SMILES: O=C1CN=C(c2ccccn2)c2cc(Br)ccc2N1
- logP [21]: 2.05

SMILES: CC[C@@]1(Br)C(=O)NC(=O)N([C@H]2C[C@H](O)[C@@H](CO)O2)[C@H]1OC
- logP [1]: 0.4

SMILES: NS(=O)(=O)c1ccc(-c2cn([C@@H]3O[C@H](CO)[C@@H](O)[C@H](O)[C@H]3O)nn2)cc1
- logP [11]: -0.1

SMILES: CCCCC(C#N)(Cn1cncn1)c1ccc(Cl)cc1 (configuration not stated)
- logP [10]: 3.16

SMILES: CCOP(=S)(Oc1ccccc1)c1ccccc1 (configuration not stated)
- logD [25]: 1.79
